Experimental data: patent US7932251B2, “6-phenyl-1H-imidazo[4,5-c]pyridine-4-carbonitrile derivatives” (priority 2007, dated 2011)

Molecular target: recombinant human Cathepsin S (Homo sapiens, UniProt P25774)
Experiment: Cathepsin S assay: inhibition of recombinant human cathepsin S, fluorogenic substrate Z-Val-Val-Arg-AMC
Assay type: biochemical
Method: Cathepsin S Assay Procedure
To a 384 well microtitre plate is added 10 μl of a 100 μM solution of test compound in assay buffer (110 mM sodium acetate pH5.5, 5 mM EDTA, 5 mM dithiothreitol) with 10% dimethylsulfoxide (DMSO), plus 20 μl of 250 μM solution of the substrate
Z-Val-Val-Arg-AMC (7-amido-coumarine derivative of the tripeptide N-benzyloxycarbonyl-Val-Val-Arg-OH) in assay buffer and 45 μl of assay buffer. 25 μl of a 2 mg/l solution of activated recombinant human cathepsin S, in assay buffer, is then added to the well, yielding a final inhibitor concentration of 10 μM. Enzyme activity is determined by measuring the fluorescence of the liberated aminomethylcoumarin at […] using 390 nm excitation, at 20 minutes. Percentage enzyme activity is calculated by comparison of this activity to that of a solution containing no inhibitor.

Chain of recombinant human Cathepsin S (P25774 115-331): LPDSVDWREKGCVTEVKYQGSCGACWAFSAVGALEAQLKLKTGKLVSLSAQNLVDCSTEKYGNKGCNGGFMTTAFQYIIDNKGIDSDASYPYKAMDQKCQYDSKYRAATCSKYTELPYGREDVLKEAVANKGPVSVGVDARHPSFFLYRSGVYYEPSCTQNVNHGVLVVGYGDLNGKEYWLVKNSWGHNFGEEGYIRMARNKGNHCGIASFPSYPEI

Row | Structure (SMILES) | IC50 [nM]
1 | CN1CCN(CCCOc2ccc(-c3cc4c(ncn4C)c(C#N)n3)cc2C(F)(F)F)CC1(C)C [Example 4a, 1-Methyl-6-{3-(trifluoromethyl)-4-[3-(3,3,4-trimethylpiperazin-1-yl)-propoxy]-phenyl}-1H-imidazo[4,5-c]pyridine-4-carbonitrile] | < 100
2 | Cn1cnc2c(C#N)nc(-c3ccc(OCCCN4CCNC(C)(C)C4)c(C(F)(F)F)c3)cc21 [Example 4b, 6-{4-[3-(3,3-Dimethylpiperazin-1-yl)-propoxy]-3-(trifluoromethyl)-phenyl}-1-methyl-1H-imidazo[4,5-c]pyridine-4-carbonitrile] | < 100
3 | CCc1nccn1CCCOc1ccc(-c2cc3c(ncn3C)c(C#N)n2)cc1C(F)(F)F [Example 7b, 6-{4-[3-(2-Ethyl-imidazol-1-yl)-propoxy]-3-(trifluoromethyl)-phenyl}-1-methyl-1H-imidazo[4,5-c]pyridine-4-carbonitrile] | < 100
4 | Cn1cnc2c(C#N)nc(-c3ccc(OCCCO)c(C(F)(F)F)c3)cc21 [Example 1] | < 100
5 | Cn1cnc2c(C#N)nc(-c3ccc(OCCCN4CCCC4)c(C(F)(F)F)c3)cc21 [Example 2c, 1-Methyl-6-[4-(3-pyrrolidin-1-ylpropoxy)-3-(trifluoromethyl)-phenyl]-1H-imidazo[4,5-c]pyridine-4-carbonitrile] | < 100
6 | CNC(=O)C1CCN(CCCOc2ccc(-c3cc4c(ncn4C)c(C#N)n3)cc2C(F)(F)F)CC1 [Example 5a, 1-Methyl-6-(4-{3-[4-(N-methylaminocarbonyl)-piperidin-1-yl]-propoxy}-3-(trifluoromethyl)-phenyl)-1H-imidazo[4,5-c]pyridine-4-carbonitrile] | < 100
7 | CCN1CCN(CCCOc2ccc(-c3cc4c(ncn4C)c(C#N)n3)cc2C(F)(F)F)CC1 [Example 4f, 6-{4-[3-(4-Ethylpiperazin-1-yl)-prooxy]-3-(trifluoromethyl)-phenyl}-1-methyl-1H-imidazo[4,5-c]pyridine-4-carbonitrile] | < 100
8 | CCN(CC)CCCOc1ccc(-c2cc3c(ncn3C)c(C#N)n2)cc1C(F)(F)F [Example 2u, 6-[4-(3-N,N-Diethylamino-propoxy)-3-(trifluoromethyl)-phenyl]-1-methyl-1H-imidazo[4,5-d]pyridine-4-carbonitrile] | < 100
9 | Cn1cnc2c(C#N)nc(-c3ccc(OCCN4C(=O)NC5(CCNCC5)C4=O)c(C(F)(F)F)c3)cc21 [Example 12, 6-(4-[2-(2,4-Dioxo-1,3,8-triaza-spiro[4.5]dec-3-yl)-ethoxy]-3-(trifluoromethyl)-phenyl]-1-methyl-1H-imidazo[4,5-c]pyridine-4-carbonitrile] | < 100
10 | Cn1cnc2c(C#N)nc(-c3ccc(OCc4ccccn4)c(C(F)(F)F)c3)cc21 [Example 13c, 1-Methyl-6-[4-(pyridin-2-yl-methoxy)-3-(trifluoromethyl)-phenyl]-1H-imidazo[4,5-c]pyridine-4-carbonitrile] | < 100
11 | CCN1CCN(CCCOc2ccc(-c3cc4[nH]cnc4c(C#N)n3)cc2C(F)(F)F)CC1 [Example 20f] | < 100
12 | CN1CCN(CCCOc2ccc(-c3cc4c(ncn4C)c(C#N)n3)cc2C(F)(F)F)CC1 [Example 4e, 1-Methyl-6-{4-[3-(4-methylpiperazin-1-yl)-propoxy]-3-(trifluoromethyl)-phenyl}-1H-imidazo[4,5-c]pyridine-4-carbonitrile] | < 100
13 | C[C@@H]1CN(CCOc2ccc(-c3cc4c(ncn4C)c(C#N)n3)cc2C(F)(F)F)C[C@H](C)N1 [Example 9d, 6-{4-[2-(cis-3,5-dimethyl-piperazin-1-yl)-ethoxy]3-(trifluoromethyl)-phenyl}-1-methyl-1H-imidazo[4,5-c]pyridine-4-carbonitrile] | < 100
14 | CN1CCC2(CC1)NC(=O)N(CCOc1ccc(-c3cc4c(ncn4C)c(C#N)n3)cc1C(F)(F)F)C2=O [Example 11, 1-Methyl-6-{4-[2-(8-methyl-2,4-dioxo-1,3,8-triaza-spiro[4.5]dec-3-yl)-ethoxy]-3-(trifluoromethyl)-phenyl}-1H-imidazo[4,5-c]pyridine-4-carbonitrile] | < 100
15 | CN(C)CCCOc1ccc(-c2cc3c(ncn3C)c(C#N)n2)cc1C(F)(F)F [Example 2a, 6-[4-(3-Dimethylaminopropoxy)-3-(trifluoromethyl)-phenyl]-1-methyl-1H-imidazo[4,5-g]pyridine-4-carbonitrile] | < 100
